For 26 compounds, IC50 results are on record in patent publication US20130217664A1, “NOVEL COMPOUNDS USEFUL FOR THE TREATMENT OF DEGENERATIVE AND INFLAMMATORY DISEASES” (priority 2012, published 2013).

Each structure is given as a SMILES string. pIC50: −log10 of the molar value. Where two headings read alike, the source gives them in different places.

The test system of assay [1] is pSTAT1(2)-luciferase reporter in HeLa cells triggered with human OSM. The assay is described as follows: JAK-STAT signalling assay. Type of assay: cell-based. The settings on record: read-out: JAK-STAT IC50. The method, boiled down:
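HeLa cells transiently co-transfected with pSTAT1(2)-luciferase and LacZ control reporter, preincubated with compound 60 min, then stimulated with human OSM (33 ng/mL final) overnight at 37 °C. Luciferase read by luminescence; percent inhibition from vehicle and no-trigger controls, EC50 from dose-response.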

Assay [2] deals with T1, human JAK3 (Homo sapiens, UniProt P52333).
T1 construct: catalytic domain (amino acids 781-1124; catalog number PV3855); purchased Invitrogen PV3855
Briefly: JAK3 inhibition assay. Conditions: recombinant human JAK3 catalytic domain; polyGT substrate. Type of assay: biochemical. In a few lines:
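Radiometric kinase assay: 0.5 ng JAK3 with 2.5 μg polyGT in Tris pH 7.5/MgCl2 buffer, 1 μM ATP plus 0.25 μCi 33P-γ-ATP, 1% DMSO, 45 min at 30 °C, stopped with phosphoric acid.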

The mark [3] stands for this setting: Homo sapiens, HeLa, HeLa cells, pSTAT1(2)-luciferase reporter, human OSM 33 ng/mL.
The mark [4] stands for this setting: HeLa cells, pSTAT1(2)-luciferase reporter, human OSM 33 ng/mL.

T1 sequence (P52333 781-1124): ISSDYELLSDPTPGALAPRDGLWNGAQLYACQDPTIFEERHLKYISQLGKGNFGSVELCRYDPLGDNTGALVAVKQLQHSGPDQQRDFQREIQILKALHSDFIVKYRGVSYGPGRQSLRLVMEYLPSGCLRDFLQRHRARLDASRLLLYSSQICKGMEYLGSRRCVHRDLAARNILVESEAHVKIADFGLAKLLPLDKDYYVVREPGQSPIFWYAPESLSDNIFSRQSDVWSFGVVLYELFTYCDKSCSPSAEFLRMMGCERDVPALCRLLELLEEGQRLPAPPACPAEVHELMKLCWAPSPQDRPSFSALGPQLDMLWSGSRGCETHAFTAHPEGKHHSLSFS

In general, pIC50 refers to the IC50 on a negative log10 scale, so that one unit is a factor of ten. With `CN(c1ccc(O)cc1)c1cc2c(cn1)ncn2C` [Compound 17, 4-(methyl(1-methyl-1H-imidazo[4,5-c]pyridin-6-yl)amino)phenol], the pIC50 in assay [1] (setting [3]) and in assay [2] was less than 6.00 in each case.
Consider `CN(c1ccc(CC#N)cc1)c1cc2c(cn1)ncn2C` [Compound 26, 2-(4-(Methyl(1-methyl-1H-imidazo[4,5-c]pyridin-6-yl)amino)phenyl)acetonitrile], for which the pIC50 in assay [1] (setting [3]) and in assay [2] was less than 6.00 throughout.
Consider `COC(=O)c1ccc(N(C)c2cc3c(cn2)ncn3C)c(C)c1` [Compound 27, Methyl 3-methyl-4-(methyl(1-methyl-1H-imidazo[4,5-c]pyridin-6-yl)amino)benzoate], for which the pIC50 in assay [1] (setting [3]) and in assay [2] was less than 6.00 throughout.
As to `CCc1cc(F)ccc1N(C)c1cc2c(cn1)ncn2C` [Compound 28, N-(2-Ethyl-4-fluorophenyl)-N,1-dimethyl-1H-imidazo[4,5-c]pyridin-6-amine], the pIC50 in assay [1] (setting [3]) and in assay [2] was less than 6.00 each time.
In the case of `Cc1cc(CO)ccc1N(C)c1cc2c(cn1)ncn2C` [Compound 29, (3-Methyl-4-(methyl(1-methyl-1H-imidazo[4,5-c]pyridin-6-yl)amino)phenyl) MeOH], the pIC50 in assay [1] (setting [3]) and in assay [2] was less than 6.00 throughout.
Consider `CNC(=O)c1ccc(N(C)c2cc3c(cn2)ncn3C)c(C)c1` [Compound 30, N,3-Dimethyl-4-(methyl(1-methyl-1H-imidazo[4,5-c]pyridin-6-yl)amino)-benzamide], for which the pIC50 in assay [1] (setting [3]) and in assay [2] was less than 6.00 each time.
In the case of `Cc1cc(C#N)ccc1N(C)c1cc2c(cn1)ncn2C` [Compound 31, 3-Methyl-4-(methyl(1-methyl-1H-imidazo[4,5-c]pyridin-6-yl)amino)benzonitrile], the pIC50 in assay [1] (setting [3]) and in assay [2] was less than 6.00 each time.
As to `Cc1cc(C(N)=O)ccc1N(C)c1cc2c(cn1)ncn2C` [Compound 32, 3-Methyl-4-(methyl(1-methyl-1H-imidazo[4,5-c]pyridin-6-yl)amino)benzamide], the pIC50 in assay [1] (setting [3]) and in assay [2] was less than 6.00 throughout.
Take `COc1ccc(COc2ccc(N(C)c3cc4c(cn3)ncn4C)c(C)c2)cc1` [Compound 33, N-(4-(4-Methoxybenzyloxy)-2-methylphenyl)-N,1-dimethyl-1H-imidazo[4,5-c]pyridin-6-amine]: the pIC50 in assay [1] (setting [4]) and in assay [2] was less than 6.00 each time.
For the compound `CCc1ccccc1N(CC)c1cc2c(cn1)ncn2C` [Compound 34, N-Ethyl-N-(2-ethylphenyl)-1-methyl-1H-imidazo[4,5-c]pyridin-6-amine], the pIC50 in assay [1] (Homo sapiens, HeLa) was less than 6.00; in assay [2], 6.00 to 6.30.
As for `CCc1ccccc1N(CC1CC1)c1cc2c(cn1)ncn2C` [Compound 35, N-(cyclopropylmethyl)-N-(2-ethylphenyl)-1-methyl-1H-imidazo[4,5-c]pyridin-6-amine], the pIC50 in assay [1] (setting [3]) was less than 6.00; in assay [2], 6.00 to 6.30.
For `Cc1cc(O)ccc1N(C)c1cc2c(cn1)ncn2C` [Compound 38, 3-Methyl-4-(methyl(1-methyl-1H-imidazo[4,5-c]pyridin-6-yl)amino)phenol] the same measures were less than 6.00 and 6.00 to 6.30.
Take `CN(c1cc2c(cn1)ncn2C)c1ccccc1OC(F)F` [Compound 39, N-(2-(difluoromethoxy)phenyl)-N,1-dimethyl-1H-imidazo[4,5-c]pyridin-6-amine]: the pIC50 is less than 6.00 in assay [1] (setting [3]) and 6.00 to 6.30 in assay [2].
With `COc1ccc(COc2ccc(C)c(N(C)c3cc4c(cn3)ncn4C)c2)cc1` [Compound 43, N-(5-(4-methoxybenzyloxy)-2-methylphenyl)-N,1-dimethyl-1H-imidazo[4,5-c]pyridin-6-amine], the pIC50 in assay [1] (setting [4]) and in assay [2] was less than 6.00 in each case.
As for `Cc1cc(OCC#N)ccc1N(C)c1cc2c(cn1)ncn2C` [Compound 47, 2-(3-methyl-4-(methyl(1-methyl-1H-imidazo[4,5-c]pyridin-6-yl)amino)phenoxy)acetoni-trile], the results for the pIC50 in assay [1] (setting [3]) and in assay [2] were less than 6.00 and 6.00 to 6.30, respectively.
For `Cc1cc(OCCCC#N)ccc1N(C)c1cc2c(cn1)ncn2C` [Compound 48, 4-(3-methyl-4-(methyl(1-methyl-1H-imidazo[4,5-c]pyridin-6-yl)amino)phenoxy)butane nitrile] the same measures were less than 6.00 and less than 6.00.
With `Cc1ccc(OCc2ccccc2)cc1N(C)c1cc2c(cn1)ncn2C` [Compound 56, N-(5-(benzyloxy)-2-methylphenyl)-N,1-dimethyl-1H-imidazo[4,5-c]pyridin-6-amine], the negative logarithm of the IC50 (pIC50) in assay [1] (setting [4]) and in assay [2] was less than 6.00 each time.
As to `Cc1ccc(OCC#N)cc1N(C)c1cc2c(cn1)ncn2C` [Compound 57, 2-(4-methyl-3-(methyl(1-methyl-1H-imidazo[4,5-c]pyridin-6-yl)amino)phenoxy)acetoni-trile], the pIC50 in assay [1] (setting [3]) was less than 6.00; in assay [2], 6.30 to 7.00.
As to `Cc1ccc(OCCCC#N)cc1N(C)c1cc2c(cn1)ncn2C` [Compound 60, 4-(4-methyl-3-(methyl(1-methyl-1H-imidazo[4,5-c]pyridin-6-yl)amino)phenoxy)butane nitrile], the pIC50 in assay [1] (setting [3]) is less than 6.00; in assay [2] it was 6.30 to 7.00.
On to `Cc1ccc(OCc2cccnc2)cc1N(C)c1cc2c(cn1)ncn2C` [Compound 61, N,1-dimethyl-N-(2-methyl-5-(pyridin-3-ylmethoxy)phenyl)-1H-imidazo[4,5-c]pyridin-6-amine], for which the pIC50 in assay [1] (setting [4]) and in assay [2] was less than 6.00 throughout.
As to `Cc1ccc(OCc2ccc(Cl)cc2)cc1N(C)c1cc2c(cn1)ncn2C` [Compound 62, N-(5-(4-chlorobenzyloxy)-2-methylphenyl)-N,1-dimethyl-1H-imidazo[4,5-c]pyridin-6-amine], the pIC50 in assay [1] (setting [4]) and in assay [2] was less than 6.00 each time.
As for `Cc1ccc(OCC(C)C)cc1N(C)c1cc2c(cn1)ncn2C` [Compound 63, N-(5-isobutoxy-2-methylphenyl)-N,1-dimethyl-1H-imidazo[4,5-c]pyridin-6-amine], the pIC50 in assay [1] (setting [3]) and in assay [2] was less than 6.00 each time.
Turning to `Cc1c(OCC#N)cccc1N(C)c1cc2c(cn1)ncn2C` [Compound 64, 2-(2-methyl-3-(methyl(1-methyl-1H-imidazo[4,5-c]pyridin-6-yl)amino)phenoxy)acetoni-trile], the pIC50 is less than 6.00 in assay [1] (setting [3]) and 6.30 to 7.00 in assay [2].
Regarding `Cc1cc(-c2cn[nH]c2)ccc1N(C)c1cc2c(cn1)ncn2C` [Compound 71, N,1-Dimethyl-N-(2-methyl-4-(1H-pyrazol-4-yl)phenyl)-1H-imidazo[4,5-c]pyridin-6-amine], the negative-log IC50 (pIC50) in assay [1] (setting [4]) is less than 6.00; in assay [2], 6.00 to 6.30.
Regarding `Cc1cc(-c2cncnc2)ccc1N(C)c1cc2c(cn1)ncn2C` [Compound 72, N,1-dimethyl-N-(2-methyl-4-(pyrimidin-5-yl)phenyl)-1H-imidazo[4,5-c]pyridin-6-amine], the pIC50 in assay [1] (setting [3]) and in assay [2] was less than 6.00 in each case.
Take `Cc1cc(-c2cnn(C)c2)ccc1N(C)c1cc2c(cn1)ncn2C` [Compound 73, N,1-dimethyl-N-(2-methyl-4-(1-methyl-1H-pyrazol-4-yl)phenyl)-1H-imidazo[4,5-c]pyridin-6-amine]: the pIC50 in assay [1] (setting [4]) and in assay [2] was less than 6.00 in each case.
